Literature values, collected in US7799540B2, “Method of producing lycopene through the fermentation of selected strains of Blackeslea trispora, formulations and uses of the lycopene thus obtained” (Vitatene, S.A., priority 2001, dated 2010).

Conditions: rats; Matos H.R. et al. (2001)

For CC(C)=CCC/C(C)=C/C=C/C(C)=C/C=C/C(C)=C/C=C/C=C(C)/C=C/C=C(C)/C=C/C=C(\C)CCC=C(C)C [lycopene, Lycopene], the “effect on harmful effect of ferric nitriloacetate on DNA” value is given as “inhibits the harmful effect of ferric nitriloacetate on DNA” and the “effect on necrosis of the liver” value is given as “prevents necrosis of the liver”.
